This test concerns the target T1, GLUT1 (Homo sapiens, UniProt P11166).
T1 construct: endogenous in cells
T1 sequence (P11166 1-492): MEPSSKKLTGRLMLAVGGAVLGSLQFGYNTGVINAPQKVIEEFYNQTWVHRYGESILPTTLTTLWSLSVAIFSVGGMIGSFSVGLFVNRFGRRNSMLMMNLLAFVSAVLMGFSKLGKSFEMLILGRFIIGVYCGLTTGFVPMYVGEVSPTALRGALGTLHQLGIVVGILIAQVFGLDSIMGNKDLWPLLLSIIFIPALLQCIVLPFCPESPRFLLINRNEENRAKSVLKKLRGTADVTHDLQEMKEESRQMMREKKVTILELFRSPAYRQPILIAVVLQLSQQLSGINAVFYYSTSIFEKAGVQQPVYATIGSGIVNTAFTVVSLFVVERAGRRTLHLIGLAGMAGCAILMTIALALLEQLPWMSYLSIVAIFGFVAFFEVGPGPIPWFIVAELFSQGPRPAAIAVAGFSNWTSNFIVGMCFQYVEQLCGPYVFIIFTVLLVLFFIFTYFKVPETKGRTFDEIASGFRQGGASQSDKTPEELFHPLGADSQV
Kind of test: Indirect measurement of GLUT activity by quantification of intracellular ATP levels (glucose induced ATP increase). The class given is cell-based. As to conditions: DLD1 cells; 1 mM glucose, 1 uM Rotenone, 15 min; standardized to cytochalasin B IC50 values; read-out: IC50 regarding glucose induced ATP increase (GLUT1 inhibition). The text has this: It is well known that a combination of small-molecule inhibitors of mitochondrial electron transport chain and glucose catabolism synergistically suppress ATP production and impair cellular viability (Ulanovskaya et al., 2008, 2011; Liu, et al. 2001). We therefore used DLD1 or CHO-K1 cells in combination with an oxidative phosphorylation inhibitor to identify GLUT inhibitors. Cell lines were maintained in DMEM medium supplemented with 10% FCS and 1% Penicillin-Streptomycin solution and 2% Glutamax. The cells were treated with trypsin and seeded into 384 plates at a density of 4000 cells/well. The cells were then cultured overnight in glucose free media containing 1% FCS to reduce intracellular ATP levels. After 24 h the cells were incubated at 37° C. containing the appropriate glucose or in case of GLUT2 fructose concentration (1 mM and 30 mM respectively) with or without compounds and 1 uM Rotenone for 15 min. The CellTiter-Glo® Luminescent Cell Viability Assay from Promega was then used to measure ATP levels. Compounds able to reduce the ATP Levels within 15 min of glucose application were considered to be glucose uptake inhibitors.

Turning to `CC(c1ccc(C#N)cc1)n1cc(NC(=O)c2cc(C(N)=O)nc3ccccc23)c(C(F)(F)F)n1` (racemic) [Example 40, (±)—N^4-{1-[1-(4-cyanophenyl)ethyl]-3-(trifluoromethyl)-1H-pyrazol-4-yl}quinoline-2,4-dicarboxamide], the IC50 (usually the concentration that inhibits the measured activity by half) was 32 nM.

For `Cc1nn(Cc2ccc(F)cc2)cc1NC(=O)c1cc(C(F)(F)F)nc2cc(F)c(F)cc12` [Example 2, 6,7-difluoro-N-[1-(4-fluorobenzyl)-3-methyl-1H-pyrazol-4-yl]-2-(trifluoromethyl)quinoline-4-carboxamide], the IC50 was found to be 505 nM.

Regarding `COc1cc(C(=O)Nc2cn(Cc3ccc(F)cc3)nc2C)c2ccccc2n1` [Example 3, N-[1-(4-fluorobenzyl)-3-methyl-1H-pyrazol-4-yl]-2-methoxyquinoline-4-carboxamide], the half-maximal inhibitory concentration (IC50) came out at 150 nM.

On to `Cc1nn(Cc2ccc(F)cc2)cc1NC(=O)c1cc(C(F)(F)F)nc2ccc(Br)cc12` [Example 4, 6-bromo-N-[1-(4-fluorobenzyl)-3-methyl-1H-pyrazol-4-yl]-2-(trifluoromethyl)quinoline-4-carboxamide], for which the IC50 came out at 111 nM.

As to `Cc1nn(Cc2ccc(F)cc2)cc1NC(=O)c1cc(C(N)=O)nc2ccccc12` [Example 5, N^4-[1-(4-fluorobenzyl)-3-methyl-1H-pyrazol-4-yl]quinoline-2,4-dicarboxamide], the IC50 is 15 nM.

For the molecule `Cc1nn(Cc2ccc(F)cc2)cc1NC(=O)c1cc(C2CC2)nc2ccc(F)cc12` [Example 6, 2-cyclopropyl-6-fluoro-N-[1-(4-fluorobenzyl)-3-methyl-1H-pyrazol-4-yl]quinoline-4-carboxamide], the IC50 was found to be 125 nM.

For the molecule `Cc1nn(Cc2ccc(F)cc2)cc1NC(=O)c1cc(C(F)(F)F)nc2c(Cl)cc(Cl)cc12` [Example 7, 6,8-dichloro-N-[1-(4-fluorobenzyl)-3-methyl-1H-pyrazol-4-yl]-2-(trifluoromethyl)quinoline-4-carboxamide], the IC50 is 176 nM.

Turning to `Cc1nn(Cc2ccc(C#N)cc2)cc1NC(=O)c1cc(C(F)(F)F)nc2ccc(Br)cc12` [Example 8, 6-bromo-N-[1-(4-cyanobenzyl)-3-methyl-1H-pyrazol-4-yl]-2-(trifluoromethyl)quinoline-4-carboxamide], the 50% inhibitory concentration (IC50) stood at 21 nM.

Take `COc1cc(C(=O)Nc2cn(Cc3ccc(C#N)cc3)nc2C)c2ccccc2n1` [Example 10, N-[1-(4-cyanobenzyl)-3-methyl-1H-pyrazol-4-yl]-2-methoxyquinoline-4-carboxamide]: the IC50 was found to be 79 nM.

Take `COc1ccc(Cn2cc(NC(=O)c3cc(OC)nc4ccccc34)c(C)n2)cc1` [Example 11, 2-methoxy-N-[1-(4-methoxybenzyl)-3-methyl-1H-pyrazol-4-yl]quinoline-4-carboxamide]: the concentration for half-maximal inhibition (IC50) is 21 nM.

As to `COc1ccc(Cn2cc(NC(=O)c3cc(C(F)(F)F)nc4ccc(Br)cc34)c(C)n2)cc1` [Example 12, 6-bromo-N-[1-(4-methoxybenzyl)-3-methyl-1H-pyrazol-4-yl]-2-(trifluoromethyl)quinoline-4-carboxamide], the IC50 worked out at 29 nM.

As to `COc1ccc(Cn2cc(NC(=O)c3cc(C(N)=O)nc4ccccc34)c(C)n2)cc1` [Example 13, N^4-[1-(4-methoxybenzyl)-3-methyl-1H-pyrazol-4-yl]quinoline-2,4-dicarboxamide], the IC50 worked out at 2.3 nM.

As for `Cc1nn(Cc2ccccc2C#N)cc1NC(=O)c1cc(C(F)(F)F)nc2ccc(Br)cc12` [Example 14, 6-bromo-N-[1-(2-cyanobenzyl)-3-methyl-1H-pyrazol-4-yl]-2-(trifluoromethyl)quinoline-4-carboxamide], the IC50 turned out to be 97 nM.

`COc1cc(C(=O)Nc2cn(Cc3ccccc3C#N)nc2C)c2ccccc2n1` [Example 15, N-[1-(2-cyanobenzyl)-3-methyl-1H-pyrazol-4-yl]-2-methoxyquinoline-4-carboxamide]: the IC50 was 116 nM.

Consider `Cc1nn(Cc2ccccc2C#N)cc1NC(=O)c1cc(C(N)=O)nc2ccccc12` [Example 16, N^4-[1-(2-cyanobenzyl)-3-methyl-1H-pyrazol-4-yl]quinoline-2,4-dicarboxamide], for which the IC50 turned out to be 137 nM.

Take `COC(=O)c1nn(Cc2ccc(F)cc2)cc1NC(=O)c1cc(C(F)(F)F)nc2ccc(Br)cc12` [Example 17, methyl 4-({[6-bromo-2-(trifluoromethyl)quinolin-4-yl]carbonyl}amino)-1-(4-fluorobenzyl)-1H-pyrazole-3-carboxylate]: the IC50 is 64 nM.

For `O=C(O)c1nn(Cc2ccc(F)cc2)cc1NC(=O)c1cc(C(F)(F)F)nc2ccc(Br)cc12` [Example 18, 4-({[6-bromo-2-(trifluoromethyl)quinolin-4-yl]carbonyl}amino)-1-(4-fluorobenzyl)-1H-pyrazole-3-carboxylic acid], the IC50 was determined as 6.5 nM.

As for `CN(C)C(=O)c1nn(Cc2ccc(F)cc2)cc1NC(=O)c1cc(C(F)(F)F)nc2ccc(Br)cc12` [Example 19, 6-bromo-N-[3-(dimethylcarbamoyl)-1-(4-fluorobenzyl)-1H-pyrazol-4-yl]-2-(trifluoromethyl)quinoline-4-carboxamide], the 50% inhibitory concentration (IC50) came to 20 nM.

Consider `O=C(NCCO)c1nn(Cc2ccc(F)cc2)cc1NC(=O)c1cc(C(F)(F)F)nc2ccc(Br)cc12` [Example 20, 6-bromo-N-{1-(4-fluorobenzyl)-3-[(2-hydroxyethyl)carbamoyl]-1H-pyrazol-4-yl}-2-(trifluoromethyl)quinoline-4-carboxamide], for which the 50% inhibitory concentration (IC50) is 2000 nM.

On to `NC(=O)c1nn(Cc2ccc(F)cc2)cc1NC(=O)c1cc(C(F)(F)F)nc2ccc(Br)cc12` [Example 21, 6-bromo-N-[3-carbamoyl-1-(4-fluorobenzyl)-1H-pyrazol-4-yl]-2-(trifluoromethyl)quinoline-4-carboxamide], for which the half-maximal inhibitory concentration (IC50) came to 1150 nM.

As for `CNC(=O)c1nn(Cc2ccc(F)cc2)cc1NC(=O)c1cc(C(F)(F)F)nc2ccc(Br)cc12` [Example 22, 6-bromo-N-[1-(4-fluorobenzyl)-3-(methylcarbamoyl)-1H-pyrazol-4-yl]-2-(trifluoromethyl)quinoline-4-carboxamide], the IC50 turned out to be 20100 nM.

With `COCCNC(=O)c1nn(Cc2ccc(F)cc2)cc1NC(=O)c1cc(C(F)(F)F)nc2ccc(Br)cc12` [Example 23, 6-bromo-N-{1-(4-fluorobenzyl)-3-[(2-methoxyethyl)carbamoyl]-1H-pyrazol-4-yl}-2-(trifluoromethyl)quinoline-4-carboxamide], the IC50 worked out at 20100 nM.

In the case of `COC(=O)c1nn(Cc2ccc(C#N)cc2)cc1NC(=O)c1cc(C(F)(F)F)nc2ccc(Br)cc12` [Example 24, methyl 4-({[6-bromo-2-(trifluoromethyl)quinolin-4-yl]carbonyl}amino)-1-(4-cyanobenzyl)-1H-pyrazole-3-carboxylate], the IC50 came out at 1650 nM.

With `N#Cc1ccc(Cn2cc(NC(=O)c3cc(C(F)(F)F)nc4ccc(Br)cc34)c(C(=O)O)n2)cc1` [Example 25, 4-({[6-bromo-2-(trifluoromethyl)quinolin-4-yl]carbonyl}amino)-1-(4-cyanobenzyl)-1H-pyrazole-3-carboxylic acid], the IC50 came to 10200 nM.

`N#Cc1ccc(Cn2cc(NC(=O)c3cc(C(F)(F)F)nc4ccc(Br)cc34)c(C(=O)NCCO)n2)cc1` [Example 26, 6-bromo-N-{1-(4-cyanobenzyl)-3-[(2-hydroxyethyl)carbamoyl]-1H-pyrazol-4-yl}-2-(trifluoromethyl)quinoline-4-carboxamide]: the half-maximal inhibitory concentration (IC50) was found to be 7040 nM.

Regarding `CNC(=O)c1nn(Cc2ccc(C#N)cc2)cc1NC(=O)c1cc(C(F)(F)F)nc2ccc(Br)cc12` [Example 27, 6-bromo-N-[1-(4-cyanobenzyl)-3-(methylcarbamoyl)-1H-pyrazol-4-yl]-2-(trifluoromethyl)quinoline-4-carboxamide], the IC50 was found to be 893 nM.

As for `N#Cc1ccc(Cn2cc(NC(=O)c3cc(C(F)(F)F)nc4ccc(Br)cc34)c(C(N)=O)n2)cc1` [Example 28, 6-bromo-N-[3-carbamoyl-1-(4-cyanobenzyl)-1H-pyrazol-4-yl]-2-(trifluoromethyl)quinoline-4-carboxamide], the 50% inhibitory concentration (IC50) was found to be 544 nM.

In the case of `CN(C)C(=O)c1nn(Cc2ccc(C#N)cc2)cc1NC(=O)c1cc(C(F)(F)F)nc2ccc(Br)cc12` [Example 29, 6-bromo-N-[1-(4-cyanobenzyl)-3-(dimethylcarbamoyl)-1H-pyrazol-4-yl]-2-(trifluoromethyl)quinoline-4-carboxamide], the concentration for half-maximal inhibition (IC50) was determined as 1700 nM.

Regarding `COCCNC(=O)c1nn(Cc2ccc(C#N)cc2)cc1NC(=O)c1cc(C(F)(F)F)nc2ccc(Br)cc12` [Example 30, 6-bromo-N-{1-(4-cyanobenzyl)-3-[(2-methoxyethyl)carbamoyl]-1H-pyrazol-4-yl}-2-(trifluoromethyl)quinoline-4-carboxamide], the IC50 stood at 7490 nM.
